Patent EP4803142A2 (Kayothera Inc., priority 2021, dated 2022)

What was measured:
mALDH1a2 = target: T1, mALDH1a2 (Mus musculus, UniProt Q62148); assay: biochemical; settings: read-out: mAldhla2 IC50
T1 construct: pET-Aldh1a2 transformed BL21-DE3 cultures; cell extracts
T1 sequence (Q62148 1-518): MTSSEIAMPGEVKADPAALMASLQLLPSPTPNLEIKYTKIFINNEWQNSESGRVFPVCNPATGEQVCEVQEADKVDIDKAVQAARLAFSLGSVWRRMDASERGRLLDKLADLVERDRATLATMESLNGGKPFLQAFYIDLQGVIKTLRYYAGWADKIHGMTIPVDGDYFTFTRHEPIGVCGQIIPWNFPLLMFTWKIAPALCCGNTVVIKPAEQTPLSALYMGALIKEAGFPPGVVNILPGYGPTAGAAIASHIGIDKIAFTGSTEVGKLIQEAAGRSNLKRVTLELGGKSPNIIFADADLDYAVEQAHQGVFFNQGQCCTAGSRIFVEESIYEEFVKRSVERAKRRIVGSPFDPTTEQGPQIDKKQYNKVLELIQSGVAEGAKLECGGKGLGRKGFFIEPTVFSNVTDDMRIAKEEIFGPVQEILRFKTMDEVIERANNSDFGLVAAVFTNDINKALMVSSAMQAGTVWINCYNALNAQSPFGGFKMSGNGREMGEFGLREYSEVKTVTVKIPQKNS
Procedure: (§1) Biological Example 5C. Aldh1a2 Enzyme Inhibition Assay
(§2) Cell extracts were spun at 16000 x g for 5 minutes.
(§3) Recombinant enzyme and inhibitor added immediately before assay. Reaction rate measured by resorufin fluorescence. […]
(§4) Table 3B. IC50 values (nM) for inhibition of hALDH1a2 and mALDH1a2 of selected compounds

hALDH1a2 = target: T2, hALDH1a2 (Homo sapiens, UniProt O94788); assay: biochemical; settings: read-out: hAldhla2 IC50
T2 construct: pET-Aldh1a2 transformed BL21-DE3 cultures; cell extracts
T2 sequence (O94788 1-518): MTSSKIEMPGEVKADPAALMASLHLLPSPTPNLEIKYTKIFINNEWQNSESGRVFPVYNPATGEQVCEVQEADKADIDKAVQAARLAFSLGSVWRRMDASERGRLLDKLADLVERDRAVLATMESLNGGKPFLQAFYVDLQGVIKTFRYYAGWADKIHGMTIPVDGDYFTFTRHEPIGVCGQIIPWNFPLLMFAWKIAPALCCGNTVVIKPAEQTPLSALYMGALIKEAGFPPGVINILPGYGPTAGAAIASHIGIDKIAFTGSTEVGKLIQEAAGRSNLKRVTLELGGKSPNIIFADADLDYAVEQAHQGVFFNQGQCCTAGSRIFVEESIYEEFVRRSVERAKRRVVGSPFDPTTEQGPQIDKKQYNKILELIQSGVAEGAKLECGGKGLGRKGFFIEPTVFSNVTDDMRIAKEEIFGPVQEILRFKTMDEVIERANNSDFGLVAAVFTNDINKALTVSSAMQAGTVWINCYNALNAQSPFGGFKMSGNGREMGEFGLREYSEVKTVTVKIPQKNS
Procedure: as §1, §2, §3, §4

| SMILES | IC50 (mALDH1a2) [nM] | IC50 (hALDH1a2) [nM] |
| --- | --- | --- |
| Cc1ccc2nc(Nc3ccc4c(c3)CCC(=O)N4)ccc2c1 [compound 89] | 489 | 10000 |
| N#Cc1ccc2ccc(Nc3ccc4c(c3)CCC(=O)N4)nc2c1 [compound 90] | 6380 | 10000 |
| Cc1ccc2ccc(Nc3ccc4c(c3)CCC(=O)N4)nc2c1 [compound 91] | 594 | 998 |
| CC1(C)Cc2cc(Nc3cnc4ccccc4n3)ccc2NC1=O [compound 92] | 31 | 40 |
| CC1(C)Cc2cc(Nc3ncc4ccccc4n3)ccc2NC1=O [compound 93] | 63 | 80 |
| CC1(C)Cc2cc(Nc3ccc4ccncc4n3)ccc2NC1=O [compound 94] | 921 | 809 |
| CC1(C)Cc2cc(Nc3ccc4cnccc4n3)ccc2NC1=O [compound 95] | 1770 | 10000 |
| Cc1ccc(Nc2ccc3c(c2)CC(C)(C)C(=O)N3)nc1C [compound 96] | > 10000 | > 10000 |
| CC1(C)Cc2cc(Nc3ccc(Cl)c(Cl)n3)ccc2NC1=O [compound 97] | 294 | 466 |
| CC1(C)Cc2cc(Nc3nc4ccccc4[nH]3)ccc2NC1=O [compound 98] | 1290 | 3080 |
| CC1(C)Cc2cc(Nc3nc4ccccc4o3)ccc2NC1=O [compound 99] | 184 | 316 |
| N#Cc1cccc2ncc(Nc3ccc4c(c3)CCC(=O)N4)cc12 [compound 100] | > 10000 | > 10000 |
| Cc1cccc2ncc(Nc3ccc4c(c3)CCC(=O)N4)cc12 [compound 101] | 935 | 1890 |
| O=S1(=O)CCc2cc(Nc3ccc4ccccc4n3)ccc2N1 [compound 102] | > 10000 | > 10000 |
| CC1(C)Cc2cc(Nc3ccc4cnccc4c3)ccc2NC1=O [compound 103] | 5000 | > 10000 |
| CC1(C)Cc2cc(Nc3ccc4ccncc4c3)ccc2NC1=O [compound 104] | > 10000 | > 10000 |
| CC1(C)Cc2cc(NC3COc4ccccc4C3)ccc2NC1=O (stereo not drawn) [compound 105] | > 10000 | > 10000 |
| CC1(C)Cc2cc(NN3CCC(c4ccccc4)C3=O)ccc2NC1=O (stereo not drawn) [compound 106] | > 10000 | > 10000 |
| CC1(C)Cc2cc(Nc3ncc4ccccc4n3)c(F)cc2NC1=O [compound 108] | 100 | 120 |
| CC1(C)Cc2cc(Nc3cnc4ccccc4n3)c(F)cc2NC1=O [compound 109] | 45 | 42 |
| Cc1cccc2ccc(Nc3ccc4c(c3)CC(C)(C)C(=O)N4)nc12 [compound 111] | 145 | 196 |

Further lines, results first:

| IC50 (mALDH1a2) [nM] | IC50 (hALDH1a2) [nM] | SMILES |
| --- | --- | --- |
| 300 | 346 | CC1(C)Cc2cc(Nc3ccc4c(Cl)cccc4n3)ccc2NC1=O [compound 112] |
| > 10000 | > 10000 | Cn1ccc2nc(Nc3ccc4c(c3)CC(C)(C)C(=O)N4)ccc21 [compound 113] |
| > 10000 | > 10000 | CC1(C)Cc2cc(Nc3ccc4c(c3)NC(=O)CC4)ccc2NC1=O [compound 114] |
| > 10000 | > 10000 | CC1(C)Cc2cc(Nc3c[nH]c4ccccc4c3=O)ccc2NC1=O [compound 115] |
| 337 | 305 | CC1(C)Cc2cc(Nc3nc(=O)c4ccccc4[nH]3)ccc2NC1=O [compound 116] |
| > 10000 | > 10000 | CC1(C)Cc2cc(Nc3cnc4ccc(C(=O)O)cc4n3)ccc2NC1=O [compound 118] |
| 10000 | > 10000 | O=C1CCc2cc(Oc3ncc4ccccc4n3)ccc2N1 [compound 119] |
| > 10000 | 10000 | COC(=O)c1ccc2ncc(Nc3ccc4c(c3)CC(C)(C)C(=O)N4)nc2c1 [compound 120] |
| > 10000 | > 10000 | CC1(C)Cc2cc(Nc3cccc(Cl)n3)ccc2NC1=O [compound 122] |
| > 10000 | > 10000 | CC1(C)Cc2cc(Nc3ccc(Cl)cn3)ccc2NC1=O [compound 123] |
| 4050 | 4490 | CC1(C)Cc2cc(Nc3cc(Cl)c(Cl)cn3)ccc2NC1=O [compound 125] |
| 165 | 214 | O=C1CCc2cc(Nc3cnc4ccccc4n3)ncc2N1 [compound 126] |
| 1290 | 894 | CC1(C)Cc2cc(Nc3ccc4c(n3)CCCC4=O)ccc2NC1=O [compound 127] |
| 53 | 71 | Cc1nc(Nc2ccc3c(c2)CC(C)(C)C(=O)N3)nc2ccccc12 [compound 132] |
| 97 | 125 | Cc1cc2ccccc2nc1Nc1ccc2c(c1)CC(C)(C)C(=O)N2 [compound 134] |
| > 10000 | > 10000 | CC1(C)Cc2cc(Nc3c[nH]c4c(c3=O)CCCC4)ccc2NC1=O [compound 135] |
| > 10000 | > 10000 | CCc1cnccc1C(=O)Nc1ccc2c(c1)C(F)(F)C(=O)N2 [compound 136] |
| > 100000 | > 10000 | CCc1cnccc1C(=O)Nc1ccc2c(c1)C(C)(C)C(=O)N2 [compound 137] |
